Patent US20250051362A1, “SUBSTITUTED FUSED HETEROCYCLIC COMPOUND, AND PREPARATION METHOD THEREFOR AND USE THEREOF” (Shanghai Annova Biotechnology Co., Ltd., priority 2021, published 2025)

How the values were obtained:
[1] = system: human colon cancer LoVo cells; assay: Cell proliferation inhibition assay (CellTiter-Glo); type: cell-based; conditions: for Emax: Homo sapiens, LoVo cells, 96 hours incubation, read-out: Max Inhibition; for LoVo IC50 value (ratio to Example Compound 1): LoVo IC50 of comparative compound divided by that of Example Compound 1 (0.66 μM)
Description: Experimental method: A CellTiter-Glo cell viability assay kit was used to test the inhibitory effect of the compounds on the in vitro proliferation of human colon cancer LoVo cells.
Experimental materials: LoVo cells (ATCC, Cat. No. CCL-29); F-12K medium (Invitrogen, Cat. No. 21127-022); fetal bovine serum (Biological Industries, Cat. No. 04-002-1A); GlutaMAX (Gibco, Cat. No. 35050-061); 0.25% trypsin-EDTA (Invitrogen, Cat. No. 25200-072); CellTiter-Glo kit (Promega, Cat. No. G7558).
Experimental procedure: (1) F-12K medium, fetal bovine serum and GlutaMAX were formulated into a complete medium for culturing LoVo cells; (2) well-grown LoVo cells were taken, digested with trypsin and transferred to a centrifuge tube, and centrifuged; the supernatant was discarded, and cells were resuspended by adding a fresh medium and counted by a Vi-CELL XR cell counter; the density of the cell suspension was adjusted to 25,000 to 30,000 cells/mL, and the cell suspension was added at 100 μL/well in a 96-well cell culture plate, while a blank control group was set up with no cells added, and the cell culture plate was incubated in a carbon dioxide incubator overnight; (3) a DMSO solution of the compound to be tested was dispensed into the above 96-well cell culture plate using an HP D300 ultra-micro sampler, with 0.5 μL of the solution per well and 10 concentrations for each compound (3× dilution), while a DMSO control group with no compound added was set up, and the plate was continued to be incubated in a carbon dioxide incubator for 96 hours; (4) the cell culture plate was taken out and equilibrated to room temperature, with 100 μL of a CellTiter-Glo reagent added to each well, and then the plate was kept away from light, shaken for 10 minutes and then incubated for 10 minutes; (5) the cell culture plate was put into EnSpire for plate reading, and the luminescence value RLU was recorded.
Data processing: (1) The inhibition rate was calculated from the luminescence values: “RLUDMSO” is the luminescence value of the DMSO control group without compound, “RLUblank” is the luminescence value of the blank control group without cells, and “RLUcompound” is the luminescence value of the compound test group, and the inhibition rate=[1−(RLUcompound−RLUblank)/(RLUDMSO−RLUblank)]×100%; (2) with curve fitting using the Excel add-on XLFit, the IC50 value was calculated.

ATR kinase = ATR kinase (Homo sapiens (Human), UniProt Q13535); assay: In vitro ATR kinase inhibition assay (Mobility Shift Assay, Caliper EZ Reader); type: biochemical; conditions: for IC50: ATP concentration of Km, 4 h at 28° C.; for ATR IC50 value (ratio to Example Compound 1): ATR IC50 of comparative compound divided by that of Example Compound 1 (5.5 nM)
Protocol: Experimental method: The inhibitory activity of the compounds on ATR kinase in vitro was determined by Mobility Shift Assay at an ATP concentration of Km using Caliper EZ Reader as a mobility shift assaying technology based on microfluidic chip technology.
Experimental procedure: (1) The compounds to be tested were dissolved in DMSO and serially diluted 4× for a total of 10 concentrations; (2) 0.06 μL of the compounds at different concentrations were pipetted into a 384-well plate using an Echo pipetting system; (3) a 2× kinase solution with a concentration of 10 nM ATR kinase was prepared from the ATR kinase and the 1× kinase buffer; and a 2× substrate solution with a concentration of 6 μM 5-FAM-AK-17 and 4 μM ATP was prepared from 5-FAM-AK-17, ATP and the 1× kinase buffer; (4) 10 μL of the 2× kinase solution was added into the 384-well plate and incubated for 10 min at room temperature; 10 μL of the 2× substrate solution was then added and incubated for 4 h at 28° C.; (5) 30 μL of the termination buffer was added to terminate the reaction, and then the 384-well plate was put into the Caliper EZ Reader to read the conversion rate data.

ATR kinase, sequence (Q13535 whole entry): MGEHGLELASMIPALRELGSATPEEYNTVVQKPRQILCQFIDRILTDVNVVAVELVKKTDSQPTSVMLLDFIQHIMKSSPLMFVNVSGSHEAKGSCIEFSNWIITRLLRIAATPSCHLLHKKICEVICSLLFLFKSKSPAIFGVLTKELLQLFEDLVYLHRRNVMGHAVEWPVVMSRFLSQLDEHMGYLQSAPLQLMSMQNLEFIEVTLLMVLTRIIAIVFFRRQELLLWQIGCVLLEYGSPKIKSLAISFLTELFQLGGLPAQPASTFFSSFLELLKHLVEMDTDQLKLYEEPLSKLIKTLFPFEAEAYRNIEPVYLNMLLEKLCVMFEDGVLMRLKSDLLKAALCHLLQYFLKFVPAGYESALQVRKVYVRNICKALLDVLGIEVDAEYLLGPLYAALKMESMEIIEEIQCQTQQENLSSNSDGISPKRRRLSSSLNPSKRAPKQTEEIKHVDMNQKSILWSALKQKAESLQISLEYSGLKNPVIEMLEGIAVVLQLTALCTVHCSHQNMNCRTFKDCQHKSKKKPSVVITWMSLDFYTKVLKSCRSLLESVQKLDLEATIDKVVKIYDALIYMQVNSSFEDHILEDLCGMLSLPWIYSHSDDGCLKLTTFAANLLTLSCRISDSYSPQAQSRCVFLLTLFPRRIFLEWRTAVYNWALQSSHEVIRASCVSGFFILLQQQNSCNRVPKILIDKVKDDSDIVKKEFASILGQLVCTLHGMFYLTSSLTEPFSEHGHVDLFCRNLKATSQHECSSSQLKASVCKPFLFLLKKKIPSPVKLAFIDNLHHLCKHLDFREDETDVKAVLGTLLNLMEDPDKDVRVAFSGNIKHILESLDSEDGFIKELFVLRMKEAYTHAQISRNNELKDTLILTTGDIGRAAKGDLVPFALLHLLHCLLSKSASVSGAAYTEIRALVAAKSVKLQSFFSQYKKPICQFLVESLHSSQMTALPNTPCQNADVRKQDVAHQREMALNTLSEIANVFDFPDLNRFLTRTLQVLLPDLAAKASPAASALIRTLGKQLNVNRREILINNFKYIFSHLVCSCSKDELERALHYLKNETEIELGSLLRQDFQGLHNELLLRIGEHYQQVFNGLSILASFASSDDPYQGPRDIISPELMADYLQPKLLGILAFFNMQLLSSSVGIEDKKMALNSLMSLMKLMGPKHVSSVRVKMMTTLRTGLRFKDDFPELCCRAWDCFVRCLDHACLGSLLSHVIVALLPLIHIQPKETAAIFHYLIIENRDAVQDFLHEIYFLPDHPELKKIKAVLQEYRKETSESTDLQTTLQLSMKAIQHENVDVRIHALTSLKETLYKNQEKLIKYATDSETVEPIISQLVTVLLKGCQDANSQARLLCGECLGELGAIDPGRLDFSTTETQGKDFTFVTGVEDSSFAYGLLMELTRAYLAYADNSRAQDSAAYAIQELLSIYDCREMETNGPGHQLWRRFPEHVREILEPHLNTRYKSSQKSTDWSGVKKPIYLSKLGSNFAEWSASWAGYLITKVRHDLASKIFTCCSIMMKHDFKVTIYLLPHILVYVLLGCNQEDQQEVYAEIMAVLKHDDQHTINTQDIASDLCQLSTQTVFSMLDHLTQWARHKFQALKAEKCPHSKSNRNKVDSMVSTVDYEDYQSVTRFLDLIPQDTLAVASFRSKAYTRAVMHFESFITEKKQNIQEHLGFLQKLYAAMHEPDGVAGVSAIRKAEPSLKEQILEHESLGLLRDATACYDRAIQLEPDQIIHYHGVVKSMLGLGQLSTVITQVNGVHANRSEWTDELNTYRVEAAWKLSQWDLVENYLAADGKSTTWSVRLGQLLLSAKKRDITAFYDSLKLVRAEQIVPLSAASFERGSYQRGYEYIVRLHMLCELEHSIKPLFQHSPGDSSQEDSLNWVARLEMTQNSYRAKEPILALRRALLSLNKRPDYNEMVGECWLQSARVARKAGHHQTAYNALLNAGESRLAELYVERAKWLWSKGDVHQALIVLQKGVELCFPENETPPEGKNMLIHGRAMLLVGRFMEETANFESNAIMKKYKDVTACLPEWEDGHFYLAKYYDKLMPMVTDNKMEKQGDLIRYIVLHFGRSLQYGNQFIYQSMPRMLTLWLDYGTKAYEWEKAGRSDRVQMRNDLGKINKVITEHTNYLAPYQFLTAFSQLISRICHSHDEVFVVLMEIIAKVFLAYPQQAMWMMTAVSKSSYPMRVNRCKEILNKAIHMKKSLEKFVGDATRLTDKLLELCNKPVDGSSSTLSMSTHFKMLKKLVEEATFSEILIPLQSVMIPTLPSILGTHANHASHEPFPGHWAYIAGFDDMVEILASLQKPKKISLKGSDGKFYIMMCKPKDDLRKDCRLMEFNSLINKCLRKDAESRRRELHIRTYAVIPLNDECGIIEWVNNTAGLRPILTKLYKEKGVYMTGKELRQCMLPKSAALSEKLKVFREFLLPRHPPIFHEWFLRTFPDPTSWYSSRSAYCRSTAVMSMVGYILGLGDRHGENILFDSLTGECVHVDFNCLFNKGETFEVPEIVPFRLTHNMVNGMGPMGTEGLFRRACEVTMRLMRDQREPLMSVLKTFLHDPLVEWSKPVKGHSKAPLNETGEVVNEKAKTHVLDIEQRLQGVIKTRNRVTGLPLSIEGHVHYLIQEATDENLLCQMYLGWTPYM
ATR kinase, sequence (Q8WXE1 whole entry partner): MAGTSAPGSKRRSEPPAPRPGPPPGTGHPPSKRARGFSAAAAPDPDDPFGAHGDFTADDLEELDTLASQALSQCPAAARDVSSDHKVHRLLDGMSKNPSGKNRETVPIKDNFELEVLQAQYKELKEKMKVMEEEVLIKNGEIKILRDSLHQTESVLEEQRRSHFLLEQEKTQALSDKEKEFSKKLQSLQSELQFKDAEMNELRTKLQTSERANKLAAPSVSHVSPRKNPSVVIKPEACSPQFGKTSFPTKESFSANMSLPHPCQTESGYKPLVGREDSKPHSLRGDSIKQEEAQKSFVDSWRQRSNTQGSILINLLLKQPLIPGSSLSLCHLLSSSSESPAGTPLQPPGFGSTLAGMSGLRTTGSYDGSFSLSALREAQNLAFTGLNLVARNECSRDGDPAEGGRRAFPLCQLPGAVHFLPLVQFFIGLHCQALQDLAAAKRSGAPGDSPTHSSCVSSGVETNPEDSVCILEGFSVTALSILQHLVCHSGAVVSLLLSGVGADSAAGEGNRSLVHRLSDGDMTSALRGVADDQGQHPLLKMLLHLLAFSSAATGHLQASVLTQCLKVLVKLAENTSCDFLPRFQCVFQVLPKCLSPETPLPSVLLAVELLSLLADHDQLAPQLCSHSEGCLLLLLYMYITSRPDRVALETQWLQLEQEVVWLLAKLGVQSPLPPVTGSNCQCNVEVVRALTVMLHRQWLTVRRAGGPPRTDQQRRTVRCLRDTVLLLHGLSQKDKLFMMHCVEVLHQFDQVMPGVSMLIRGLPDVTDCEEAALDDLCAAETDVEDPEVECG

Row | IC50 (ATR kinase) [nM] | LoVo IC50 value (ratio to Example Compound 1) [1] | ATR IC50 value (ratio to Example Compound 1) (ATR kinase) | Compound | Emax [1] [%]
1 | 5.3 | – | – | COc1cc(-c2nc(N3CCOC[C@H]3C)c3ccn(S(C)(=O)=O)c3n2)c2cc[nH]c2c1 [Compound 32, (R)-4-(2-(6-methoxy-1H-indol-4-yl)-7-(methylsulfonyl)-7H-pyrrolo[2,3-d]pyrimidin-4-yl)-3-methylmorpholine] | 95
2 | 15 | – | – | C[C@@H]1COCCN1c1cc(-c2ccnc3[nH]ccc23)nc2c1ncn2S(C)(=O)=O [Compound 24, (R)-3-methyl-4-(3-(methylsulfonyl)-5-(1H-pyrrolo[2,3-b]pyridin-4-yl)-3H-imidazo[4,5-b]pyridin-7-yl)morpholine] | 92
3 | 20 | 2.34/0.66 = 3.55 | 20/5.5 = 3.64 | C[C@@H]1COCCN1c1cc(-c2ccnc3[nH]ccc23)nc2c1ccn2CS(C)(=O)=O [Compound 4′, reference compound] | –
4 | 15 | 1.88/0.66 = 2.85 | 15/5.5 = 2.73 | CC(n1ccc2c(N3CCOC[C@H]3C)cc(-c3ccnc4[nH]ccc34)nc21)S(C)(=O)=O (stereo partly shown) [Compound 5′, reference compound] | –
